Columns and labels:
[1] = preliminary safety studies in mice; assay type: in vivo; settings: doses up to 1 g/kg
[2] = tested on: lethal APAP liver failure model; experiment: lethal APAP liver failure model (500 mg/kg APAP i.p.), survival; settings: 2×120 mg/kg, 1 h and 3 h or 3 h and 5 h after APAP (500 mg/kg); 4 days
Description: Compound 3b was tested in a lethal APAP liver failure model (see, e.g. Imaeda et al. J Clin Invest (2009) 119:305-14).
Male C57BL/6 mice fasted overnight to increase CyP450 activity. APAP dosed i.p. at 500 mg/kg. Survival monitored over 3 to 5 days.
FIGS. 18A-18B depicts the survival curve of C57BL/6 mice injected (i.p.) with 500 mg/kg of APAP and treated with Compound 3b. Mice were fasted overnight and APAP was administered afterward (n=15). Compound 3b was administered at a dose of 120 mg/kg at 1 h and 3 h (A) or at 3 h and 5 h (B) after APAP administration. Mice survival was monitored for 4 days.
Mice were fasted overnight and APAP was administered afterward (n=15). Compound 3b was administered at a dose of 120 mg/kg (ip) at +3 h or +4 h after APAP administration. Another group of mice received NAC (150 mg/kg, ip) at +1 h after APAP. The remaining two groups are administered in NAC+ Compound 3b combination mode; one group of mice was administered with NAC (150 mg/kg, ip) at +1 h plus Compound 3b (120 mg/kg, ip)+3 h and other with Compound 3b (150 mg/kg, ip) at +1 h plus Compound 3b (120 mg/kg, ip)+4 h. Mice survival was monitored for 4 days.

[3] = tested on: liver ischemia-reperfusion model; experiment: liver ischemia-reperfusion model; assay type: in vivo, C57BL/6 mice; settings: 30 mg/kg i.p. 1 h before and 1 h after surgery; ALT 24 h later
Description: Liver ischemia-reperfusion model in C57BL/6 mice. In anesthetized C57BL/6 mice, the hepatic artery and portal vein were clamped for 30 min; 24 h later, serum ALT levels were determined. Compound 3b was dosed i.p. at 30 mg/kg each 1 h before and 1 h after surgery.
FIG. 20 depicts the effect of Compound 3b in the Ischemia-Reperfusion model. In anesthetized C57BL/6 mice, the hepatic artery and portal vein were clamped for 30 min; 24 h later, serum ALT levels were determined. Compound 3b was administered by i.p. injection at 30 mg/kg, 1 hour before and 1 h after surgery.

[4] = tested on: primary hepatocytes from C57BL/6 mice; experiment: ex-vivo model of apoptosis (ActD/TNF-α); assay type: cell-based, mouse; settings: 2×150 μg/0.5 mL well (2×600 μM), 24 hours
Description: FIGS. 21A-21B depict the effect of Compound 3b in an ex-vivo model of apoptosis. Apoptosis of primary hepatocytes from C57BL/6 mice was induced with Actinomycin D (ActD; 200 ng/mL) and Tumour Necrosis Factor-α (TNF-α; 10 ng/mL). Compound 3b was added to the cultures 1 hour before and 1 hour after the addition of the apoptosis inducers ActD/TNF-α. Compound 3b was tested at concentrations of 25, 50, 100 and 150 μg/0.5 mL well. Hepatocytes survival was determined 24 hours after the addition of the apoptosis inducers. FIG. 21A: Percentage of increase in survival ActD/TNF-α treated cells in the presence of Compound 3b, relative to cells treated with only the apoptosis inducers. FIG. 21B: Toxicity of the Compound 3b doses on murine hepatocytes (not treated with apoptosis inducers). Data are the mean±S.D. of 3-5 independent experiments (3-5 livers from different mice).

[5] = carboxyhemoglobin (COHb) levels in treated mice; assay type: in vivo, CD-1 female mice
Description: FIG. 9 depicts the percentage of carboxyhemoglobin (CO-Hb) measured in CD-1 female mice following Compound 3b administration at 300 mg/kg, intravenously. The CO-Hb was quantified over 80 min by using an oximeter (Avoximeter 4000 from A-vox Instruments). The base line of CO-Hb measured with this instrument is 3-4%.

[6] = tested on: murine partial hepatectomy model; experiment: liver regeneration, murine partial (70%) hepatectomy model; assay type: in vivo, mice; settings: 2×100 mg/kg
Description: Liver regeneration in the murine partial hepatectomy model to test for regenerative activity. Model: partial (70%) liver resection in mice and follow rate of regeneration.
FIG. 22 depicts the effect of Compound 3b in a model of liver regeneration. Animals were anesthetized and 70% of the liver was resected, corresponding to the left and median liver lobes. Compound 3b was administered (2×100 mg/kg) 1 h before and 1 h after surgery. Two days later, animals were sacrificed, livers harvested, weighed, and stained for phospho histone H3 (PH3, a specific marker for cell division).

[7] = storage stability of the solid; assay type: physicochemical; settings: brown vials, ambient temperature, under N2
Excerpt: Following the procedure described by Beck and coworkers (Achatz et al., Anorg. Allg. Chem (2005) 631:2339-2346) saponification of compound (3-a) or (3-c) with NaOH followed by protonation with an acid (e.g., HCl or H2SO4) in aqueous solution led to the formation of tricarbonyl[tris(2-isocyano-2-methyl-propionic acid)]Mo(0) (3-b). Compound (3-b) is stable when stored in brown vials at ambient temperature under N2 for over 6 months or more.

[C-]#[N+]C(C)(C)C(=O)O.[C-]#[N+]C(C)(C)C(=O)O.[C-]#[N+]C(C)(C)C(=O)O.[C-]#[O+].[C-]#[O+].[C-]#[O+].[Mo] [Compound 3b, tricarbonyl[tris(2-isocyano-2-methyl-propionic acid)]Mo(0)]
toxicity in preliminary safety studies [1]: no toxicity
survival [2]: 100%
serum ALT [3]: 29 U/L
increase in survival of ActD/TNF-α treated hepatocytes relative to inducers only [4]: more than 125%
COHb in blood ([5]; 300 mg/kg i.v., over 80 min, base line 3-4%): ≤ 7.5%
symptomatic levels of COHb in blood ([5]; therapeutic doses, mice): did not cause symptomatic levels of COHb
liver weight increase 48 h after resection ([6]; 1 h before and 1 h after surgery, control 89%): 102%
PH3 staining (cell division), in words ([6]; two days after resection): increases PH3 staining
stable when stored [7]: over 6 months
